# Legend:
# [1] = In vitro release of stabilizers from implantable devices and disassembly of the devices (Contemplated Examples); assay type: physicochemical; settings: for release rate profile of stabilizer out of device through nanoporous membrane: in vitro testing, reverse phase HPLC; for duration for which stabilizer level (pH or concentration) is maintained in device: in vitro; for duration for which stabilizer level (pH or concentration) is maintained in device / pH maintained inside device: 37° C.; for pH maintained inside device: disassembly of devices at 2 months, 26 mM bis-tris buffer, 154 mM NaCl
# Text: In the examples below the devices that are used include titanium capsules of approximately 25 mm length and 2.25 mm diameter. A titanium substrate with a titanium oxide nanoporous membrane is welded to one end of the device. […] A silicone septum is located at the other end of the device. Extended-release configurations of stabilizers, prepared as described further below, are incorporated into the reservoirs before final attachment of the membrane and septum on the device. A formulation solvent is filled into the device as per methods in PCT/US2021/019559. Briefly, the formulation solvent is loaded into a filler apparatus with a hollow needle to pierce the septum. A vacuum is applied to the membrane of the device to reduce the pressure inside the reservoir, and the formulation is injected through the septum into the reservoir through the needle. The durability of the presence of stabilizers inside devices of the disclosure may be tested by measuring release of the stabilizers from the devices in vitro. In vitro testing is performed by submerging the devices in 3 ml of a 26 mM bis-tris buffer, 154 mM NaCl on a shaker plate at 37° C. and measuring the amounts of stabilizer released at regular intervals by reverse phase HPLC.
# [2] = Forced degradation study of exenatide with and without PLGA in titanium reservoirs with nanotube membrane; purity of released exenatide by HPLC; assay type: physicochemical; settings: 37 C, devices in PBS pH 7.4 with full access to air; for Exenatide purity over time (% purity), 7 days: day 7; for Exenatide purity over time (% purity), 14 days: day 14; for Exenatide purity over time (% purity), 28 days: day 28; for Exenatide purity over time (% purity), 35 days: day 35; for Exenatide purity over time (% purity), 42 days: day 42; for Exenatide purity over time (% purity), 56 days: day 56
# Method: To avoid confounding factors, no other stabilizers were used in the study.
# The devices were incubated in phosphate buffered saline (pH 7.4) under full access to air (oxygen).
# [3] = cited from earlier work
compound,measurement,setting,value
"Oc1ccc(O)cc1 [hydroquinone, Hydroquinone]",stabilizer concentration maintained in device,[1]; disassembly of devices at 4 months,at least 0.05%
same,release rate profile of stabilizer out of device through nanoporous membrane,[1],approximately constant rate
same,duration for which stabilizer level (pH or concentration) is maintained in device,[1],at least 4 months
"Exenatide only (Irradiated): E-beam irradiated (25k Gray) exenatide solution 200 mg/ml, no PLGA","Exenatide purity over time (% purity), 7 days",[2],96 % purity
same,"Exenatide purity over time (% purity), 14 days",[2],91 % purity
same,"Exenatide purity over time (% purity), 28 days",[2],82 % purity
same,"Exenatide purity over time (% purity), 35 days",[2],75 % purity
same,"Exenatide purity over time (% purity), 42 days",[2],66 % purity
same,"Exenatide purity over time (% purity), 56 days",[2],51 % purity
"Exenatide only: 20% (w/v) exenatide solution in Water For Injection with 0.04% NaN3, no PLGA, non-irradiated","Exenatide purity over time (% purity), 7 days",[2],99 % purity
same,"Exenatide purity over time (% purity), 14 days",[2],89 % purity
same,"Exenatide purity over time (% purity), 28 days",[2],87 % purity
same,"Exenatide purity over time (% purity), 35 days",[2],82 % purity
same,"Exenatide purity over time (% purity), 42 days",[2],72 % purity
same,"Exenatide purity over time (% purity), 56 days",[2],62 % purity
Cc1cc(C(C)(C)C)c(O)c(C(C)(C)C)c1 [butylated hydroxytoluene],reported solubility in water,[3],about 1 ppm
"[H]/N=C(\N/C(=N/[H])NCCCCCCNC(=N)NC(=N)Nc1ccc(Cl)cc1)Nc1ccc(Cl)cc1 [chlorhexidine, Chlorhexidine]",pH maintained inside device,[1],above 8
same,release rate profile of stabilizer out of device through nanoporous membrane,[1],declining with approximately the square root of time
same,duration for which stabilizer level (pH or concentration) is maintained in device,[1],at least 2 months
CCCOC(=O)c1cc(O)c(O)c(O)c1 [propyl gallate],stabilizer concentration maintained in device,[1]; disassembly of devices at 3 months,at least 0.05%
same,release rate profile of stabilizer out of device through nanoporous membrane,[1],declining with approximately the square root of time
same,duration for which stabilizer level (pH or concentration) is maintained in device,[1],at least 3 months
O=C(O)c1ccccc1 [benzoic acid],pH maintained inside device,[1],below 6
same,release rate profile of stabilizer out of device through nanoporous membrane,[1],declining with approximately the square root of time
same,duration for which stabilizer level (pH or concentration) is maintained in device,[1],at least 2 months
